Experiments:
Experiment in all cases: KINOMEscan competition binding
Details in all cases: compound 10.0 µM
CDC42BPG (human) = CDC42BPG (human) (UniProt Q6DT37)
EPHB2 (human) = EPHB2 (human) (UniProt P29323)
STK11 (human) = STK11 (human) (UniProt Q15831)
PRKD2 (human) = PRKD2 (human) (UniProt Q9BZL6)
RPS6KA2 KD1 (human) = RPS6KA2 KD1 (human) (UniProt Q15349)
IKBKB (human) = IKBKB (human) (UniProt O14920)
MKNK1 (human) = MKNK1 (human) (UniProt Q9BUB5)
WEE1 (human) = WEE1 (human) (UniProt P30291)
MAPKAPK2 (human) = MAPKAPK2 (human) (UniProt P49137)
CHUK (human) = CHUK (human) (UniProt O15111)
RIOK3 (human) = RIOK3 (human) (UniProt O14730)
BRSK1 (human) = BRSK1 (human) (UniProt Q8TDC3)
ACVRL1 (human) = ACVRL1 (human) (UniProt P37023)
SRPK1 (human) = SRPK1 (human) (UniProt Q96SB4)
STK33 (human) = STK33 (human) (UniProt Q9BYT3)
CDK18 (human) = CDK18 (human) (UniProt Q07002)
SGK110 (human) = SGK110 (human) (UniProt P0C264)
PRKACA (human) = PRKACA (human) (UniProt P17612)
CDK15 (human) = CDK15 (human) (UniProt Q96Q40)
FYN (human) = FYN (human) (UniProt P06241)
STK17A (human) = STK17A (human) (UniProt Q9UEE5)
RPS6KA1 KD2 (human) = RPS6KA1 KD2 (human) (UniProt Q15418)
MYLK2 (human) = MYLK2 (human) (UniProt Q9H1R3)
MAP3K10 (human) = MAP3K10 (human) (UniProt Q02779)
TAOK3 (human) = TAOK3 (human) (UniProt Q9H2K8)
CSNK1G1 (human) = CSNK1G1 (human) (UniProt Q9HCP0)
TTK (human) = TTK (human) (UniProt P33981)
MAPK9 (human) = MAPK9 (human) (UniProt P45984)
MAP3K11 (human) = MAP3K11 (human) (UniProt Q16584)
CAMK2A (human) = CAMK2A (human) (UniProt Q9UQM7)
[1] = target: TYK2 JH1 catalytic (human) (UniProt P29597)
MAPK4 (human) = MAPK4 (human) (UniProt P31152)
CDK7 (human) = CDK7 (human) (UniProt P50613)
PDGFRB (human) = PDGFRB (human) (UniProt P09619)
DCLK2 (human) = DCLK2 (human) (UniProt Q8N568)
PLK1 (human) = PLK1 (human) (UniProt P53350)
TNK2 (human) = TNK2 (human) (UniProt Q07912)
[2] = target: JAK1 JH1 catalytic (human) (UniProt P23458)
MAP2K2 (human) = MAP2K2 (human) (UniProt P36507)

Sequence of PLK1 (human) (P53350 whole entry, looked up): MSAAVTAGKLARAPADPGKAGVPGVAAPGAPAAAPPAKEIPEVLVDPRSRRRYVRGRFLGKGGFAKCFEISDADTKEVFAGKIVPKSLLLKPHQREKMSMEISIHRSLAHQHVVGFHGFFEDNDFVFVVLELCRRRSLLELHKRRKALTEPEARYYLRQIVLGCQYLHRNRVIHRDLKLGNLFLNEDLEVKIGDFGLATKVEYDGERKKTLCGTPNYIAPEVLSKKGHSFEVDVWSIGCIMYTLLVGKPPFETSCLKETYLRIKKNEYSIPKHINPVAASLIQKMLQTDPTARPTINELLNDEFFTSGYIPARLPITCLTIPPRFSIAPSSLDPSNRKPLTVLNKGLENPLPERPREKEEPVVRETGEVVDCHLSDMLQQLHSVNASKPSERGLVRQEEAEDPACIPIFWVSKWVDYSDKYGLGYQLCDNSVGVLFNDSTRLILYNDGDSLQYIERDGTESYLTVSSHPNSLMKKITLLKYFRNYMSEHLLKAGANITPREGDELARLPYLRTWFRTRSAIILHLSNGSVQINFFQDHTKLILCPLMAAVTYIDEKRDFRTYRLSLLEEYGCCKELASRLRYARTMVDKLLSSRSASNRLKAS
Sequence of TTK (human) (P33981 whole entry, looked up): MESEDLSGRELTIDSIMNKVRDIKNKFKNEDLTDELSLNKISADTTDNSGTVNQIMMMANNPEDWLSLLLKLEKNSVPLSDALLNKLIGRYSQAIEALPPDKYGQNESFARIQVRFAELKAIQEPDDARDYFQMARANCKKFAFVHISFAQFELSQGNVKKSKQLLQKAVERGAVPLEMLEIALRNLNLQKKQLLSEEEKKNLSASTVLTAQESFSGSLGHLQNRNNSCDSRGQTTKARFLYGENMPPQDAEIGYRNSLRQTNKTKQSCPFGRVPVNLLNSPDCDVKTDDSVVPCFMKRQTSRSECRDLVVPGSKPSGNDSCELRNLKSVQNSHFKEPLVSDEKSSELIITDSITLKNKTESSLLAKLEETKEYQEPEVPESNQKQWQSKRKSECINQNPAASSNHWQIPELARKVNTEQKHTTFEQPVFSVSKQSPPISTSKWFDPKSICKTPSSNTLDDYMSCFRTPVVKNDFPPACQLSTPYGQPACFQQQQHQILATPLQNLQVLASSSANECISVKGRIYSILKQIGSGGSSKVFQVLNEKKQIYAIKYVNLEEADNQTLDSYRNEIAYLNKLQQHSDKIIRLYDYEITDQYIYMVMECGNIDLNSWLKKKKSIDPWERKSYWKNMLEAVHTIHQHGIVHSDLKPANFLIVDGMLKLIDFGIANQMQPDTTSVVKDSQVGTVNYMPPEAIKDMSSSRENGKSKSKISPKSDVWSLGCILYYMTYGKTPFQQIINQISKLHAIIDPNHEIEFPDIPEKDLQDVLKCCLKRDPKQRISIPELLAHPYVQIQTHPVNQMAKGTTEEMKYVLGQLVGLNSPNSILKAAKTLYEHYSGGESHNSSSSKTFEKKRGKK
Sequence of CSNK1G1 (human) (Q9HCP0 whole entry, looked up): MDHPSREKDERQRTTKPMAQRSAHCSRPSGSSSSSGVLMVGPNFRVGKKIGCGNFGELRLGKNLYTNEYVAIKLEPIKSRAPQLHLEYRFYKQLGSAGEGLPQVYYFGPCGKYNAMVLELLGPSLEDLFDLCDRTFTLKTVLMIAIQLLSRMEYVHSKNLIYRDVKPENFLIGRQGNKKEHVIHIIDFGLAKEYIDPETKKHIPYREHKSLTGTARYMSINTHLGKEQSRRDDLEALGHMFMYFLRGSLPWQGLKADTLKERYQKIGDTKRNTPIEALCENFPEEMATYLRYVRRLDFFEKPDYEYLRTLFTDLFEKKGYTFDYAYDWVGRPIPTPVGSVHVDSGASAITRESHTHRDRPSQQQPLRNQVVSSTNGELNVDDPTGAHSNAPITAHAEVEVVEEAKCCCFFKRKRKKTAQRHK
Sequence of STK17A (human) (Q9UEE5 whole entry, looked up): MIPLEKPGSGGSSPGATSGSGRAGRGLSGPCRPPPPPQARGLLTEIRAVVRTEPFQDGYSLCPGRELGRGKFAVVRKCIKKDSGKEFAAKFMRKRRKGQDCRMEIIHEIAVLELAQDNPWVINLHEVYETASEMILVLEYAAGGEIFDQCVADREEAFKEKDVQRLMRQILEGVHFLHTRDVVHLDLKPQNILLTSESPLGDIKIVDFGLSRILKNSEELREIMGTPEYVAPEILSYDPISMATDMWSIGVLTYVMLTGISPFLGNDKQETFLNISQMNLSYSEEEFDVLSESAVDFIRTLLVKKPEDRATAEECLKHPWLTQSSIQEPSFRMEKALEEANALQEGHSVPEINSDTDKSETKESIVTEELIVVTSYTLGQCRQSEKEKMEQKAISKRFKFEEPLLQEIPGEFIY
Sequence of MAP3K10 (human) (Q02779 whole entry, looked up): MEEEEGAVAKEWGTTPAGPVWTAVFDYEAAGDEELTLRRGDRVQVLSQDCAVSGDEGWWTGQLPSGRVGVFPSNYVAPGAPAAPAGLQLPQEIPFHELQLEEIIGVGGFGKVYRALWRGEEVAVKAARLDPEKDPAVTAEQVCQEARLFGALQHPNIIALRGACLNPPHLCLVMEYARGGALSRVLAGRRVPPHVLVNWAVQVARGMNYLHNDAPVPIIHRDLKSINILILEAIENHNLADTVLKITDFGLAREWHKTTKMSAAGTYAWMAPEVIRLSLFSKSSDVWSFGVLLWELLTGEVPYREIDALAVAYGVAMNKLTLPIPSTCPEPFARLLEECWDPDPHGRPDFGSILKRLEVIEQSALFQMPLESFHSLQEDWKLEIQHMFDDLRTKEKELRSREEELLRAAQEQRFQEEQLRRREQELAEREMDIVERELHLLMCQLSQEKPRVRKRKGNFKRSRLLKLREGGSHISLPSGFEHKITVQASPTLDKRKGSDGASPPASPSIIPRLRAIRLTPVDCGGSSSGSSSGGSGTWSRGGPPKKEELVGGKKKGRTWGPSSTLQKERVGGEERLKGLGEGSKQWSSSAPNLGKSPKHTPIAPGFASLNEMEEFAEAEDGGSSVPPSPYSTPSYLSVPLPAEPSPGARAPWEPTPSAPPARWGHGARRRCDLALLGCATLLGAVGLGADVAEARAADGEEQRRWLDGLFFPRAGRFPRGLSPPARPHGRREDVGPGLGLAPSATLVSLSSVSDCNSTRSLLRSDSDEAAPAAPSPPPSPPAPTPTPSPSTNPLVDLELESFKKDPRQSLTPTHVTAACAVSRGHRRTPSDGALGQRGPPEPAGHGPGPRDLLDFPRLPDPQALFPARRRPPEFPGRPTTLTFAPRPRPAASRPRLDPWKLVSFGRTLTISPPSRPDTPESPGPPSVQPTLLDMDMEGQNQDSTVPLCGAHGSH
Sequence of MKNK1 (human) (Q9BUB5 whole entry, looked up): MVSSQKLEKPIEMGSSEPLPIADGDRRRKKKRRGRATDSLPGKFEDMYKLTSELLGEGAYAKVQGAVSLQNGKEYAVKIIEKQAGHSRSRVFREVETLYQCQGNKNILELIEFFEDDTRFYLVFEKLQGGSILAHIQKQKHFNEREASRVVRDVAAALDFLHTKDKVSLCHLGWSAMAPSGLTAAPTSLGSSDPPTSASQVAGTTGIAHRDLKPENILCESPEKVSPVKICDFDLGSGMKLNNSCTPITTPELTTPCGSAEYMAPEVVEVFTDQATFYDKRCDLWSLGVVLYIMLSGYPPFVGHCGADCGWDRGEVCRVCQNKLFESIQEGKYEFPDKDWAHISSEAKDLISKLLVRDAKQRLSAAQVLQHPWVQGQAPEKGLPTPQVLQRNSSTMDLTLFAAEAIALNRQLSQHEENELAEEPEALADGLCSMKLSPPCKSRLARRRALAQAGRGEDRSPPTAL
Sequence of STK11 (human) (Q15831 whole entry, looked up): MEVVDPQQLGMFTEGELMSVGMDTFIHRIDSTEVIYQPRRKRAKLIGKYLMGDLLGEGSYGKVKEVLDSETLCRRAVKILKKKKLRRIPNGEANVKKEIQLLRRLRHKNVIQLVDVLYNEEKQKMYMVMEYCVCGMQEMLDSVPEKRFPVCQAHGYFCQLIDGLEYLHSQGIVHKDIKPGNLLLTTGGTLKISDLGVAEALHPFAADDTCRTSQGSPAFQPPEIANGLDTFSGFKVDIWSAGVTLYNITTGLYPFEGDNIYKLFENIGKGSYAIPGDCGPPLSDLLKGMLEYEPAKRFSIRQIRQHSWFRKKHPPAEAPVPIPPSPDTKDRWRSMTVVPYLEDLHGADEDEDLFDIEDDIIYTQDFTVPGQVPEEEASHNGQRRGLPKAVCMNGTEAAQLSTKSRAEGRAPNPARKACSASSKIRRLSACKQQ
Sequence of SRPK1 (human) (Q96SB4 whole entry, looked up): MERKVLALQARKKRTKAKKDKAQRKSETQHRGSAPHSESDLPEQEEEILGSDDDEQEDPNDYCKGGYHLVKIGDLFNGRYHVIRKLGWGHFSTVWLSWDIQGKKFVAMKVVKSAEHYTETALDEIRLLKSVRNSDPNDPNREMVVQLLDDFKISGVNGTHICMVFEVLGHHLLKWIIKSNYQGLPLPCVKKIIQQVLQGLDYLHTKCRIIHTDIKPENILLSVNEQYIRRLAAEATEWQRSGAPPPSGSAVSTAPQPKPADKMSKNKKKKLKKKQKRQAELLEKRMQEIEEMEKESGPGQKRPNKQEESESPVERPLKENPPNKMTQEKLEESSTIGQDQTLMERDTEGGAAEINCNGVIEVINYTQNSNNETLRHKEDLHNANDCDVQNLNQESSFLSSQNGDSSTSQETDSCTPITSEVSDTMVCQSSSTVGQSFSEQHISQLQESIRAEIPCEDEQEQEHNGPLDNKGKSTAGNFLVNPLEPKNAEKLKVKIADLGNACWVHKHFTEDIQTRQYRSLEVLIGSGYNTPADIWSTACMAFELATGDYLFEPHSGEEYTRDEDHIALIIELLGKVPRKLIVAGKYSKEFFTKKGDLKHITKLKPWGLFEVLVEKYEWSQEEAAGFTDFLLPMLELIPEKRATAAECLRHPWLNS

For Cc1cc([C@@H](C)Nc2ccccc2C(=O)O)c2nc(N3CCOCC3)cc(=O)n2c1, the kinase still bound, per cent of control (CDC42BPG (human)) was 100%, the kinase still bound, per cent of control (EPHB2 (human)) was 100% and the kinase still bound, per cent of control (STK11 (human)) was 98%. The kinase still bound, per cent of control (PRKD2 (human)) was 100%, the kinase still bound, per cent of control (RPS6KA2 KD1 (human)) was 97% and the kinase still bound, per cent of control (IKBKB (human)) was 90%. The kinase still bound, per cent of control (MKNK1 (human)) was 92%, the kinase still bound, per cent of control (WEE1 (human)) was 100% and the kinase still bound, per cent of control (MAPKAPK2 (human)) was 66%. For the same compound, the kinase still bound, per cent of control (CHUK (human)) was 100%, the kinase still bound, per cent of control (RIOK3 (human)) was 100% and the kinase still bound, per cent of control (BRSK1 (human)) was 99%. The kinase still bound, per cent of control (ACVRL1 (human)) was 89%, the kinase still bound, per cent of control (SRPK1 (human)) was 100% and the kinase still bound, per cent of control (STK33 (human)) was 100%. The kinase still bound, per cent of control (CDK18 (human)) was 100%, the kinase still bound, per cent of control (SGK110 (human)) was 100% and the kinase still bound, per cent of control (PRKACA (human)) was 100%. The kinase still bound, per cent of control (CDK15 (human)) was 100%, the kinase still bound, per cent of control (FYN (human)) was 100% and the kinase still bound, per cent of control (STK17A (human)) was 98%. It also gave a kinase still bound, per cent of control (RPS6KA1 KD2 (human)) of 84%, a kinase still bound, per cent of control (MYLK2 (human)) of 100% and a kinase still bound, per cent of control (MAP3K10 (human)) of 96%. It also gave a kinase still bound, per cent of control (TAOK3 (human)) of 100%, a kinase still bound, per cent of control (CSNK1G1 (human)) of 68% and a kinase still bound, per cent of control (TTK (human)) of 100%. For the same compound, the kinase still bound, per cent of control (MAPK9 (human)) was 66%, the kinase still bound, per cent of control (MAP3K11 (human)) was 100% and the kinase still bound, per cent of control (CAMK2A (human)) was 75%. For the same compound, the kinase still bound, per cent of control [1] was 82%, the kinase still bound, per cent of control (MAPK4 (human)) was 98% and the kinase still bound, per cent of control (CDK7 (human)) was 97%. It also gave a kinase still bound, per cent of control (PDGFRB (human)) of 100%, a kinase still bound, per cent of control (DCLK2 (human)) of 100% and a kinase still bound, per cent of control (PLK1 (human)) of 100%. The kinase still bound, per cent of control (TNK2 (human)) was 100%, the kinase still bound, per cent of control [2] was 100% and the kinase still bound, per cent of control (MAP2K2 (human)) was 100%.

Reference: the kinase profiling compilation of Christmann-Franck et al. (2016)
